Laboratory results as given in patent publication US20230414794A1, “PSMA INHIBITOR, COMPOUND AND APPLICATION” (PEKING UNIVERSITY FIRST HOSPITAL, priority 2019, published 2023).

Key:
PSMA = PSMA (Homo sapiens (Human), UniProt Q04609); test: PSMA inhibitory activity (NAAG hydrolysis by LNCaP cell lysate, Amplex Red glutamate detection); assay type: biochemical; settings: for Ki / inhibition at 6.667 µM: LNCaP cell lysate; for Ki: NAAG substrate, Ki by Cheng-Prusoff equation; for inhibition at 6.667 µM: inhibitor 6667 nM, read-out: % inhibited at 6667 nM
PSMA, sequence (Q04609 whole entry): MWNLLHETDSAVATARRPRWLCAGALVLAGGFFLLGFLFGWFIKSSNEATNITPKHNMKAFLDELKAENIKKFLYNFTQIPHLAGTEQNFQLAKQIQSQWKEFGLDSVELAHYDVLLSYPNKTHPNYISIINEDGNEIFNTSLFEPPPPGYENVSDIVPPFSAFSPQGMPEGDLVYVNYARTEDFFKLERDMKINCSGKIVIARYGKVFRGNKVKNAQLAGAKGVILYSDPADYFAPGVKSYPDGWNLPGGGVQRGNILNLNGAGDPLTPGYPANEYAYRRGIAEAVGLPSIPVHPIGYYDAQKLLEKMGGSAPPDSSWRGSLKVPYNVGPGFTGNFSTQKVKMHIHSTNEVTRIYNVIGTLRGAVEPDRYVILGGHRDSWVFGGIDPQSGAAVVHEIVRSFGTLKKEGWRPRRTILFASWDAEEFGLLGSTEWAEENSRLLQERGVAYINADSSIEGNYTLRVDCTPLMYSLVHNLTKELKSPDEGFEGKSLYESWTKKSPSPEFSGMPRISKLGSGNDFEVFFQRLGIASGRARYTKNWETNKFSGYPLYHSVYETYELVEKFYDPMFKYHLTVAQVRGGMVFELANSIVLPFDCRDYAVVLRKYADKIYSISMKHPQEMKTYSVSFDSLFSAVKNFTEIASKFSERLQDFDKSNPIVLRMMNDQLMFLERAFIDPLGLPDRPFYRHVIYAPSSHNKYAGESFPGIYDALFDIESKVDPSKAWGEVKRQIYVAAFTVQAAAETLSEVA
Method: A LNCaP cell lysate (total protein concentration: 125 μg/mL) was prepared in advance. 25 μL of the cell lysate, 25 μL of the inhibitor and 25 μL of N-acetylaspartylglutamate (NAAG, 16 μM) were incubated together in a 96-well plate (Costar Assay Plate, Cat#. 3925) at 37° C. for 180 min. The amount of glutamate released by hydrolysis of NAAG was measured using an Amplex Red Glutamic Acid Kit (Molecular Probes Inc., Eugene, OR) working solution (50 μL) after incubation for 30 min Fluorescence were measured using Synergy H1 Hybrid Reader (BioTek Instruments, Inc., Winooski, Vermont) at excitation wavelength of 530 nm and emission wavelength of 590 nm. An inhibition curve was plotted by a semi-logarithmic method. […] The inhibition constant (Ki) of the enzyme was calculated by the Cheng-Prusof equation. Each experiment was performed in triplicates. Data analysis was performed by GraphPad Prism 7.0 (GraphPad Software, San Diego, California).

PSMA (LNCaP cells) = PSMA (LNCaP cells) (Homo sapiens (Human), UniProt Q04609); test: Fluorescence microscopy imaging of LNCaP cells stained with Compound S1, with or without Compound S2; assay type: cell-based; settings: room temperature
PSMA (LNCaP cells), sequence (Q04609 whole entry): as above
Method: LNCaP cells were diluted to 1×10^6/mL with RPMI-1640 (containing 10% FBS). For staining, the cells and 2 μM Compound S1 were incubated at room temperature for 1 h. For the inhibition group, the cells were incubated with 2 μM Compound S1 and 200 μM Compound S2 together for 1 h at room temperature. After the staining was completed, excess dye compound was removed by centrifugation, and the cells were resuspended in cold PBS and blown well, 100 μL of which was taken and added to a 96-well plate, left for several minutes and then observed under a fluorescence microscope.

[1] = target: PSMA (LNCaP cells with high PSMA expression) (Homo sapiens (Human), UniProt Q04609); test: Flow cytometric analysis: inhibition of YC-36 staining of LNCaP cells; assay type: cell-based; settings: 2 μM YC-36 plus 200 μM Compound S2 (100×), 1 h, room temperature, flow cytometry
PSMA (LNCaP cells with high PSMA expression), sequence (Q04609 whole entry): as above
Method: LNCaP cells were diluted to 1×10^6/mL with RPMI-1640 (containing 10% FBS). For staining, the cells and 2 μM YC-36 were incubated at room temperature for 1 h, and then washed twice with the same medium. The cells were resuspended in cold PBS. For the inhibition group, the cells were incubated with 2 μM YC-36 and 200 μM Compound S2 for 1 hour at room temperature. The cells were analyzed by BD Influs Cell Sorter (BD Biosciences, San Jose, CA95131, USA) flow cytometry and the FlowJo software, and the results are shown in FIG. 6. The black area (left in Panel A) represents the LNCaP cells without dye, and the blue area (right in Panel A) represents the LNCaP cells after co-incubation with YC-36.
YC-36 is a fluorescent molecule having a high affinity for PSMA, and can selectively stain cells with high PSMA expression (Kiess, A.P., et al., Auger Radiopharmaceutical Therapy Targeting Prostate […]. J Nucl Med, 2015. 56(9): p. 1401-1407).

SMILES | Ki (PSMA) [nM] | inhibition at 6.667 µM (PSMA) [%] | staining of LNCaP cells (PSMA (LNCaP cells); 2 μM Compound S1, 1 h) | inhibition of staining of LNCaP cells by YC-36 [1] | affinity relative to ZJ-43 (PSMA; fold higher affinity than ZJ-43, from Ki in Table 1) [times] | inhibition of staining of LNCaP cells by the blue dye Compound S1 (PSMA (LNCaP cells); 2 μM Compound S1 plus 200 μM Compound S2 (100×), 1 h)
CC(C)C[C@H](NC(=O)N[C@@H](CNC(=O)c1ncc[nH]1)C(=O)O)C(=O)O [Comparative Compound DS1, (S)-2-(3-((S)-1-carboxy-2-(1H-imidazole-2-carboxamido)ethyl)ureido)-4-methylpentanoic acid] | > 1000 | 10.7 |  |  |  | 
CC(C)C[C@H](NC(=O)N[C@@H](CNC(=O)c1c[nH]cn1)C(=O)O)C(=O)O [Comparative Compound DS2, (S)-2-(3-((S)-1-carboxy-2-(1H-imidazole-4-carboxamido)ethyl)ureido)-4-methylpentanoic acid] | > 1000 | 20.6 |  |  |  | 
CC(C)C[C@H](NC(=O)N[C@@H](CNC(=O)c1c[nH]nn1)C(=O)O)C(=O)O [Comparative Compound DS3, (S)-2-(3-((S)-1-carboxy-2-(1H-1,2,3-triazole-4-carboxamido)ethyl)ureido)-4-methylpentanoic acid] | > 1000 | 47.3 |  |  |  | 
Nc1ccc2c(CC(=O)NCCCC[C@H](NC(=O)N[C@@H](CNC(=O)C(=O)O)C(=O)O)C(=O)O)cc(=O)oc2c1 [Compound S1, (45,85)-15-(7-amino-2-oxo-2H-chromen-4-yl)-1,6,14-trioxo-2,5,7,13-tetraazapentadecane-1,4,8-tricarboxylic acid] | 5.96 |  | stained the cells by specific binding to PSMA |  |  | 
O=C(N[C@@H](CCCCNC(=O)c1ccc(I)cc1)C(=O)O)N[C@@H](CNC(=O)C(=O)O)C(=O)O [Compound S2, (45,85)-14-(4-iodophenyl)-1,6,14-trioxo-2,5,7,13-tetraazatetradecane-1,4,8-tric arboxylic acid] | 0.08 |  |  | significantly inhibited | 44 | significantly inhibit
CC(C)C[C@H](NC(=O)N[C@@H](CNC(=O)C(=O)O)C(=O)O)C(=O)O [Compound S3, (S)-2-(3-((S)-1-carboxy-2-(carboxyformamido)ethyl)ureido)-4-methylpentanoic acid] | 5.69 |  |  |  |  | 
